Test results taken from patent publication EP3339444A1, “METHOD FOR OBTAINING A GL[…] AN INCREASED PERCENTAGE OF AF[…]” (Mabxience Research, S.L., priority 2016, dated 2018).

Columns and labels:
[1] = tested on: CHO cell line producing adalimumab; experiment: Viable cell density (VCD) and viability in fed-batch culture with arginine; format: cell-based, Chinese Hamster
Description: The cells were cultured in AMBR vessels in the cell culture media described above. The vessels were maintained at 36.5 °C, pH 7±0.2, 20% of DO and at 900 rpm of stirrer. They were seeded at 0.5 x 10^6 cells per ml in a volume of 11 mL. On days 0, 3, and 5, at least 2% of initial culture volume of feed medium and 0.2% of initial culture volume of cystine/tyrosine were added. Day 0 is the day in which the cultures were started, day 1 is the first day thereafter, day 2 is the second day thereafter, etc. Protein titer was determined on days 10, 12, 14 and 16.
The cells were cultured in 1 L scale bioreactor in the above described cell culture media. The cultures were maintained at 36.5 °C, pH 7±0.2, 20% of oxygen dissolved (DO) and at 200 rpm of stirrer. They were seeded at 0.5 x 10^6 cells per ml in a volume of 600mL. On days 0, 3, and 5, at least 2% of initial culture volume of feed medium and 0.2% of initial culture volume of cystine/tyrosine were added.
(§1) A transduced CHO cell line was used with three different culture media (Media 1, 2 and 3) in a fed-batch process with 5 different feeds (Feed 1,2,3,4 and 5) and at two culture scales, AMBR system (15 mL culture) and 1 L scale Bioreactors. Feeding strategy was based on maintaining glucose concentration between 3-4 g/L through the addition of different amount of feeding depending on glucose concentration measurement in culture media.
(§2) Process parameters & Conditions AMBR: T: 36.5 °C; Stirrer: 900 rpm; DO: 20%; pH:6.8-7.20; initial density: 0.5x10^6 cells/mL. Process parameters & Conditions 1 L: T: 36.5 °C; Stirrer: 200 rpm/240 rpm (day 7); DO: 20%; pH: 6.8-7.20; initial density: 0.5x10^6 cells/mL.

[2] = tested on: CHO cell line producing adalimumab; experiment: Glycosylation profile (N-linked glycans released, labeled, chromatography) with arginine in culture; format: cell-based, Chinese Hamster
Description: as §1, §2
N-linked glycans were released from IgG samples by overnight incubation with N-glycosidase. The released glycans were labeled with a specific fluorophore. The labeled glycans were bound and separate by a chromatography. N-linked glycan structures were assigned to peaks based on comparison to reference structures. The amount of each structure is expressed as the percentage of total peak area. G0, G1, and G2 refer to complex, neutral, biantennary structures with 0, 1, or 2 terminal galactose residues, while G0F, G1 F, are G2F, are the corresponding core fucosylated structures.
Afucosylation: [GO-GlcNac + G0 + G1 + G2] / [GO-GlcNac + G0 + G0F + G1 + G1 F + G2 + G2F]

[3] = Media_1 Feed_2, 2 and 4 g/L arginine, AMBR

Question: Which results are given for `N=C(N)NCCC[C@H](N)C(=O)O` [Arg, arginine]?
Answer: reduction of VCD (maximum) [1, 3]: about 2 million cells; viability [1, 3]: do nott affect viability; cell growth and viability ([1]; Media_1 Feed_2, 8 g/L arginine, AMBR): important reduction on cell growth affecting viability; maximum cell density ([1]; Media_2 Feed_1, 0-4 g/L arginine, AMBR): does not reduce the maximum cell density reached; maximum cell density ([1]; Media_2 Feed_1, 4 g/L arginine, 1 L bioreactor): a delay and a decrease in the obtained maximum cell density; maximum VCD ([1]; Media_2 Feed_2, 2 g/L arginine, AMBR): does not affect maximum VCD; cell growth ([1]; Media_2 Feed_2, 8 g/L arginine, AMBR): important reduction on cell growth; cell growth ([1]; Media_3 Feed_1, 2 to 4 g/L arginine, AMBR): reduces cell growth; cell density ([1]; Media_3 Feed_3, 4 g/L arginine in combination with ferric citrate, AMBR): does not have a negative effect in cell density; cell density ([1]; Media_3 Feed_4, 4 g/L arginine in combination with 1 mM 3-methyl butyrate, AMBR): does not have a negative effect in cell density; increment in G0 forms ([2]; Media_2 Feed_1, 4 g/L arginine, day 16, 1 L bioreactor): higher than 50%; increment in G1 forms ([2]; Media_3 Feed_3, 4 g/L arginine, day 14, AMBR): higher than 50%; increment in G1 forms ([2]; Media_3 Feed_4, 4 g/L arginine, day 16, AMBR): higher than 50%
